What was measured:
[1] = Pharmacokinetic study after oral administration; format: in vivo, SD rats
Procedure: Nine male SD rats were randomly divided into three groups (n = 3). […] Moreover, 500 μL of blood was taken before administration, and 300 μL of blood was taken from the heart at 0.25, 0.5, 1, 2, 4, 6, 9, 12, and 24 h after administration. The plasma samples were centrifuged at 3000 r/min for 10 min. Subsequently, 100 μL of plasma was mixed with 10 μL methanol containing internal standard (rheum emodin, 20 μg/mL). After vortexing for 3 min, 250 μL ethyl acetate was added, and the mixture was centrifuged at 3000 r/min for 10 min. The extraction residue was reconstituted in 100 μL of mobile phase and determined by HPLC. The mobile phase was a mixture of acetonitrile: water (containing 2% acetic acid) (52:48, v/v), the flow rate was 1 mL/min, and the detection wavelength was 426 nm. Pharmacokinetic parameters were calculated using PK SOLVER for the noncompartmental model.

[2] = Cytotoxicity assay (CCK‐8) on HepG‐2; format: cell-based; conditions: human, HepG-2 cells; read-out: Cell viability of HepG‐2
Procedure: HT29‐MTX and HepG‐2 were cultured in RPMI medium and MEM, respectively, supplemented with 10% fetal bovine serum, 1% (v/v) penicillin, and streptomycin. HT29‐MTX or HepG‐2 were seeded (100 μL) into a 96‐well plate at a cell density of 1 × 10^4 cells/well. […] After co‐incubation for 24 h, the cytotoxicity was analyzed by CCK‐8 assay (Cell Counting Kit‐8, Beyotime).

[3] = In vivo absorption in ligated small intestinal loops (CLSM); conditions: SD rats, 2 h
Procedure: In vivo transportation of the FITC‐labeled PA‐N‐2‐HACC NPs and FITC‐labeled PA‐N‐2‐HACC‐Cys NPs through the epithelial mucosa was qualitatively analyzed using […] in vivo absorption study.[69] Male SD rats (6–8 weeks, 230–250 g) were anesthetized by chloral hydrate, and 2‐cm sections of small intestinal loops were ligated at both ends. Then, 100 μL of 1 mg/mL FITC‐labeled PA‐N‐2‐HACC NPs and PA‐N‐2‐HACC‐Cys NPs were administered into different intestinal loops of the same SD rats (n = 3). […] After 2 h, the rats were sacrificed, and the loops treated with the FITC‐labeled NPs were withdrawn and washed with PBS (pH = 7.4). After fixation in 4% paraformaldehyde for 4 h and dehydration in 30% sucrose overnight, the loops were embedded in optimal cutting temperature compound and sectioned into 10‐μm slices using a freezing microtome (Leica CM1860, Wetzlar, Germany). Cell nuclei were stained with Hoechst 33342 for 10 min and visualized using CLSM.
All the animal care and experimental protocols were in accordance with the “National Research Council's Guide for the Care and Use of Laboratory Animals”. Male SD rats (6-8 weeks, 230-250 g) were anesthetized by chloral hydrate, and 2 cm sections of small intestinal loops were ligated at both ends. […]

HT29‐MTX = test: Cellular uptake of the NPs loaded with CUR (CLSM, HPLC); format: cell-based; conditions: CUR 5–20 μg/mL, 2 and 4 h, CLSM fluorescence / HPLC
Procedure: HT29‐MTX was seeded in the 12‐well plate with 2 × 10^5 cells/well and incubated overnight. […] After co‐incubation for prescribed time intervals (2 and 4 h), the cells were cleaned with PBS and lysed by 1% Triton X‐100 at 4°C. […] The cellular uptake efficiency was calculated using Formula (11). In addition, after fixation with 4% paraformaldehyde, the HT29‐MTX stained with Hoechst 33342 were observed by CLSM. (11) Cellular uptake%=Cellular intake ofCUR/Total amount ofCURadded×100.
HT29-MTX was seeded in the 12-well plate with 2×10^5 cells/well and incubated overnight. […] After co-incubation for prescribed time intervals (2 and 4 h), the cells were cleaned with PBS and lysed by 1% Triton X-100 at 4 ℃. […] In addition, the HT29-MTX stained with Hoechst 33342 were observed by CLSM.

DSS‐induced colitis = test: Efficacy on DSS‐induced colitis mice; format: in vivo, BALB/c mice; conditions: daily oral 7 days, CUR 50 mg/kg
Procedure: Male BALB/c mice (6–8 weeks, 20–25 g) were randomly divided into five groups with eight mice in each group after 1 week of acclimation. Except for the normal control group, the remaining four groups were given 3% DSS instead of ordinary drinking water for 7 days, during which they were fed normally to establish the mice colitis model. […] The body weight of the mice was recorded every day, and DAI was measured to assess the severity of the colitis according to body weight loss, character of stool, and the degree of hematochezia (Table 3).
After treatment with different formulas, the mice were sacrificed after anesthesia, the colon length was measured, and the colon tissue was fixed with 10% formalin and stained with hematoxylin and eosin (H&E) for pathological examination. To count colonic goblet cells, fixed colonic tissues were also stained using Alcian blue. […]
In addition, a portion of collected colon tissue (50 mg) was homogenized with RIPA lysis buffer (Thermo Fisher, Shanghai, China) to extract total proteins. […] The protein content of supernatant was quantified using a bicinchoninic acid (BCA) protein assay kit (Thermo Fisher, Shanghai, China). The concentration of pro‐inflammatory cytokines such as TNF‐α and IL‐1β was measured by ELISA kit (Enzyme‐linked Biotechnology Co., Ltd., China).

[4] = male, SD, rat, plasma, po, 50 mg/kg

CL ([1]; SD rats, oral, CUR dose 50 mg/kg, n = 3): 46.96 ± 1.12 L/h/kg
Cmax [1, 4]: 41 ± 10 ng/mL
MRT [1, 4]: 4.71 ± 0.48 h
Tmax [1, 4]: 1 h
half-life [1, 4]: 196 ± 19.2 min
AUC ([1]; male, SD, rat, plasma, po, 50 mg/kg, read-out: AUC0‐∞): 252 ± 110 ng·h/mL
Fluorescence signal in intestinal tissue (in vivo absorption, in words) [3]: weak green fluorescence signal
SMILES: COc1cc(/C=C/C(=O)CC(=O)/C=C/c2ccc(O)c(OC)c2)ccc1O [CUR, Curcumin]
viability at 24 h, 12.5 μg/mL [2]: 77.5%
Cellular uptake of CUR in HT29‐MTX (in words) (HT29‐MTX): weak fluorescence intensity
Clinical symptoms (body weight loss, colon length shortening, DAI increase) (DSS‐induced colitis): significantly improved
Colonic epithelial mucosa / goblet cells (Alcian blue staining) (DSS‐induced colitis): relieved the damage caused by DSS

— article PMC10189451, “Palmitic acid‐ and cysteine‐functionalized nanoparticles overcome mucus and epithelial barrier for oral delivery of drug” (Bioengineering & Translational Medicine, 2023)
